Literature values in patent publication US20190187141A1, “Biomarkers for Detection and Treatment of Mast Cell Activity-Associated Disorders” (Arete Discoveries, Inc., priority 2016, published 2019).
Where a name gives a salt, the structure may show the parent alone.

Experiments:
[1] = test system: lymphocytes, macrophages, mast cells and dendritic cells
mast cells [2] = details: in vitro
[3] = open label, 20 MS patients
mast cells [4] = test system: mast cells
[5] = phase II study
[6] = phase II trial, 35 progressive MS patients
cultured mast cells = details: pannexin1 hemichannel dependent mechanism
mast cells [7] = details: AD animal models; connexin 43 and pannexin1 hemichannel dependent

Cc1ccc(NC(=O)c2ccc(CN3CCN(C)CC3)cc2)cc1Nc1nccc(-c2cccnc2)n1 [Imatinib]
secretion of pro-inflammatory cytokines IFN-γ, TNF-α, IL-1β and IL-17 and MMPs [1]: inhibiting
anti-proliferative activity and immunomodulatory effects ([1]; lymphocytes, macrophages, mast cells and dendritic cells): exerts anti-proliferative activity and immunomodulatory effects

COC(=O)/C=C/C(=O)OC [dimethyl fumarate]
apoptosis of mast cells (mast cells [2]): induces apoptosis of mast cells in vitro

OCCOCCN1CCN(C(c2ccccc2)c2ccc(Cl)cc2)CC1 (centres unmarked) [hydroxyzine]
neurological outcome in MS patients [3]: stability or improvement neurologically
degranulation of mast cells within the thalamus (EAE; EAE): inhibit
progression and severity of EAE (EAE; in vivo): inhibit the progression and severity of EAE

Cc1ccc(NC(=O)c2ccc(CN3CCN(C)CC3)cc2)cc1Nc1nc(-c2cccnc2)cs1 [masitinib]
inhibition of survival, migration and activity of mast cells (mast cells [4]): effectively inhibits the survival, migration and activity of mast cells
cognitive decline in AD patients [5]: some benefit in slowing cognitive decline
efficacy in progressive MS [6]: some efficacy

Amyloid beta (Aβ) peptide 25-35 (GSNKGAIIGLM; Amyloid-beta protein 42; UniProt P05067 696-706, looked up, fragment) [amyloid beta peptide fragment 25-35]
degranulation of cultured mast cells (cultured mast cells): causes rapid degranulation of cultured mast cells
mast cell dye uptake and histamine release (mast cells [7]): promotes both connexin 43 and pannexinl hemichannel dependent mast cell dye uptake and histamine release
